US10226062B2, “Organic compounds” (priority 2013, dated 2019)

Legend:
Type in all cases: in vivo
[1] = system: umami and salt taste of 0.5% NaCl solution; assay: Tasting of NaCl solutions by flavourists (Example 2); settings: 0.5% NaCl + 5 ppm compound compared with 0.5% NaCl reference; scale -3 (much lower) to 3 (much higher), 0 = same as reference; average of flavourists' ratings
Method: An aqueous NaCl solution (0.5% by weight) was prepared (reference) to which 5 ppm of a compound of formula (I) was added.
The samples were tasted by a group of flavourists. The intensity of the umami and salt taste of the NaCl solutions comprising a compound of formula (I) (0.5% NaCl; 5 ppm of a compound of formula (I)) was compared with that of the reference (0.5% NaCl) and rated according to the following intensity scale:
Taste effect much lower than reference: −3
Taste effect lower than reference: −2
Taste effect slightly lower than reference: −1
Taste effect same as reference: 0
Taste effect slightly higher than reference: 1
Taste effect higher than reference: 2
Taste effect much higher than reference: 3

[2] = system: taste of NaCl, MSG and Ribo solutions; assay: Taste enhancement of NaCl, MSG and Ribo solutions, tasted by flavourists (Example 3); settings: linear scale 0 to 10; for Taste intensity NaCl: solution D (0.5% NaCl + 5 ppm compound) compared with A (0.5% NaCl, = 0.0), 5-10 flavourists; for Taste intensity MSG: solution E (0.5% NaCl + 0.03% MSG + 5 ppm compound) compared with B (0.5% NaCl + 0.03% MSG, = 5.0); for Taste intensity Ribo: solution F (0.5% NaCl + 0.015% Ribo + 5 ppm compound) compared with C (0.5% NaCl + 0.015% Ribo, = 5.0)
Method: Six solutions were prepared: • A a solution of 0.5% NaCl • B a solution of 0.5% NaCl and 0.03% MSG (monosodium glutamate) • C a solution of 0.5% NaCl and 0.015% Ribo (disodium 5-ribonucleotides=E635) • D a solution of 0.5% NaCl and 5 ppm of a compound of formula (I) • E a solution of 0.5% NaCl and 0.03% MSG and 5 ppm a compound of formula (I) • F a solution of 0.5% NaCl and 0.015% Ribo and 5 ppm of a compound of formula (I)
The samples were tasted by a group of 5-10 flavourists aged between 30 and 60. The taste of solution D was compared with that of A to determine the enhancement effect of a compound of formula (I) on NaCl. Similarly, solution E was compared with solution B and solution F with solution C to determine the enhancement effect of a compound of formula (I) on MSG and Ribo respectively. The effect was marked on a linear scale between 0 and 10, the greater the value the greater the effect. For a reference, the taste solutions of B and C were compared with A as well.

[3] = system: umami- and salt-taste in comestible products; assay: Taste imparted in comestible products (general statement)
[4] = system: taste of vegetarian bouillon; assay: Vegetarian bouillon tasting by flavourists (Example 4); settings: 10 ppm compound in vegetarian bouillon (32 g mix in 1 L boiling water); 4 flavourists
Method: A vegetarian bouillon mix was prepared from 204.71 g of sodium chloride, 147.76 g of dextrose monohydrate (ex Tapioca), 0.19 g of celery oleoresin, 0.19 g of oleoresin coriander seed, 418.64 g maltodextrin 5-8 DE, 37.65 g vegetable oil soya bean refined, 28.24 g yeast standard light, 3.76 g of onion powder, 3.76 g of garlic powder, 0.47 g of white pepper and 154.35 g of potato starch.
32 g of the well-mixed ingredients was added to 1 L of boiling water and stirred until completely dissolved.

Row | Compound | Taste intensity Salt (NaCl) [1] | Taste intensity Umami [1] | Taste intensity NaCl [2] | Taste intensity MSG [2] | Taste intensity Ribo [2] | Taste imparted in comestible products [3] | Taste of test bouillon compared with reference bouillon [4]
1 | CC(C)NCc1ccc2c(c1)OCO2 [N-piperonyl isopropylamine] | 0.50 | 0.00 |  |  |  |  | 
2 | CNCc1ccc2c(c1)OCO2 [N-piperonyl methylamine] | 0.25 | 0.00 |  |  |  |  | 
3 | CCCNCc1ccc2c(c1)OCO2 [N-piperonyl n-propylamine] | 1.00 | 0.00 |  |  |  |  | 
4 | C[C@H](NCc1ccc2c(c1)OCO2)C(=O)O [N-piperonyl alanine] | 0.50 | 0.00 |  |  |  |  | 
5 | OCC(CO)NCc1ccc2c(c1)OCO2 [N-piperonyl 1,3-dihydroxy-2-propylamine] | 1.00 | 0.50 | 2.3 | 5.0 | 5.0 |  | 
6 | OCCNCc1ccc2c(c1)OCO2 [N-piperonyl 2-hydroxyethylamine] | 0.75 | 0.00 |  |  |  |  | 
7 | CCNCc1ccc2c(c1)OCO2 [N-piperonyl ethylamine] | 0.75 | 0.25 | 1.3 | 6.6 | 5.6 | imparted an umami- and salt-taste | more umami, more salty, slightly sweeter and had a slightly more powdery volatile effect
8 | COc1cc(CNCCO)ccc1O.Cl [N-(2-hydroxyethyl) vanillylamine hydrochloride] | 0.33 | 0.67 |  |  |  |  | 
9 | CCC(CO)NCc1ccc2c(c1)OCO2 (stereo not shown) [N-piperonyl 1-hydroxy-2-butylamine] | 0.67 | 0.33 | 1.0 | 5.3 | 5.0 |  | 
10 | CCC(CC)NCc1ccc2c(c1)OCO2 [N-piperonyl 3-pentylamine] | 0.50 | 0.00 | 1.0 | 6.3 | 5.3 |  | more umami, sweeter and more lingering
11 | CCNCc1ccc(O)c(OC)c1.Cl [N-vanillyl ethylamine hydrochloride] | 0.67 | 0.67 |  |  |  |  | 
